Values after ≈ are worked out from the molar mass of the structure shown. Like-named read-outs stand apart in the source and are kept apart here.
How the values were obtained:
B. cereus ATCC 10876 = test: MIC, broth microdilution; format: cell-based; conditions: Bacillus cereus, ATCC10876; B. c. ATCC 10876; compounds 6–9 and antibiotics; read-out: MIC
Procedure: (§1) The antibacterial activity of the thiosemicarbazides 1–9 and antibiotics (amoxicillin, gentamicin, levofloxacin, linezolid, and vancomycin) was tested on the Gram-positive strains (Microbiologics, St. Cloud, MN, USA) (S. aureus ATCC 25923, S. aureus ATCC 6538, S. epidermidis ATCC 12228, B. subtilis ATCC 6633, B. cereus ATCC 10876, M. luteus ATCC 10240), the Gram-negative strains (Microbiologics, St. Cloud, MN, USA) (E. coli ATCC 25922, K. pneumoniae ATCC 13883, P. mirabilis ATCC 12453, P. aeruginosa ATCC 9027), and clinical isolates of S. aureus (Medical University of Lublin, Lublin, Poland) (MSSA-1, MSSA-2, MSSA-3, MSSA-4, MRSA-1).

B. subtilis ATCC 6633 = test: MIC, broth microdilution; format: cell-based; conditions: Bacillus subtilis, ATCC6633; B. s. ATCC 6633; compounds 6–9 and antibiotics; read-out: MIC
Procedure: as §1

M. luteus ATCC 10240 = test: MIC, broth microdilution; format: cell-based; conditions: Micrococcus luteus, ATCC10240; M. l. ATCC 10240; compounds 6–9 and antibiotics; read-out: MIC
Procedure: as §1

S. aureus ATCC 25923 [1] = test: MIC, broth microdilution; format: cell-based; conditions: S. a. ATCC 25923, compounds 6–9 and antibiotics
Procedure: as §1

S. aureus ATCC 6538 = test: MIC, broth microdilution; format: cell-based; conditions: Staphylococcus aureus, ATCC6538; S. a. ATCC 6538; compounds 6–9 and antibiotics; read-out: MIC
Procedure: as §1

[2] = test system: S. epidermidis ATCC 12228; test: MIC, broth microdilution; format: cell-based; conditions: Staphylococcus epidermidis, ATCC12228; S. e. ATCC 12228; compounds 6–9 and antibiotics; read-out: MIC
Procedure: as §1

MRSA-1 = test: MIC, clinical isolate of S. aureus; format: cell-based; conditions: Staphylococcus aureus; clinical isolate MRSA-1; read-out: MIC
Procedure: as §1

MSSA-1 = test: MIC, clinical isolate of S. aureus; format: cell-based; conditions: Staphylococcus aureus; clinical isolate MSSA-1; read-out: MIC
Procedure: as §1

MSSA-2 = test: MIC, clinical isolate of S. aureus; format: cell-based; conditions: Staphylococcus aureus; clinical isolate MSSA-2; read-out: MIC
Procedure: as §1

MSSA-3 = test: MIC, clinical isolate of S. aureus; format: cell-based; conditions: Staphylococcus aureus; clinical isolate MSSA-3; read-out: MIC
Procedure: as §1

MSSA-4 = test: MIC, clinical isolate of S. aureus; format: cell-based; conditions: Staphylococcus aureus; clinical isolate MSSA-4; read-out: MIC
Procedure: as §1

MTT cytotoxicity assay = format: cell-based, human; conditions: human, Hs27 foreskin fibroblast cells (ATCC CRL-1634), 25 µg/mL, 24 h, vehicle control = 100%
Procedure: (§2) A critical factor in research and development of new antibacterial agents is their abilities to selectively target bacterial cells without toxicity to mammalian cells. Thus, in order to test if antibacterial activity of title thiosemicarbazides is not due to their general toxicity, their effect on mammalian cell viability was assessed using human foreskin fibroblast Hs27 cells (CRL-1634) via MTT assay.
(§3) Cytotoxic properties of the compounds were evaluated using human foreskin fibroblast cells Hs27 (ATCC CRL-1634) (ATCC, Manassas, VA, USA) that were cultured in DMEM-high glucose (Sigma Aldrich, St. Louis, MO, USA). Medium was supplemented with 10% fetal bovine serum (FBS, Sigma Aldrich), 100 U/mL of penicillin, and […] of streptomycin (PenStrep, Sigma Aldrich, St. Louis, MO, USA). Cells were incubated at 37 °C in a humidified atmosphere of 5% CO2. Stock solutions of the tested compounds were prepared dissolving in a sterile dimethyl sulfoxide (DMSO) to the concentration of 50 mg/mL. The cells were seeded into 96-well sterile plates (Nunc) at a cell density of 1 × 10^5 cells/mL. After 24 h of incubation, the medium was removed from each well, and then cells were incubated for the next 24 h with tested compounds (in a fixed dose of 25 µg/mL) in DMEM-high glucose containing 2% FBS. Control cells were cultured only with medium containing 2% addition of FBS. Cytotoxicity of the compounds was evaluated using MTT assay, which is based on the conversion of 3-(4,5-dimethylthiazol-2-yl)-2,5- diphenyltetrazolium bromide (MTT) into dark-blue formazan crystals. Briefly, after 24-h incubation of cells with varying concentrations of the tested compounds, culture medium was removed from the plates. Cells were washed with PBS, and then 100 µL of medium containing 10% MTT solution (5 mg/mL) was added to each well. Cells were incubated for the next 3 h at 37 °C in an atmosphere of 5% CO2. Next, 100 µL (per well) of 10% sodium dodecyl sulfate (SDS) buffer solution was added to dissolve formazan crystals and after an overnight incubation the absorbance was measured at 570 nm using a microplate reader (Epoch, BioTek Instruments, Inc., Winooski, VT, USA).

[3] = test system: human foreskin fibroblast Hs27 cells (CRL-1634); test: MTT cytotoxicity assay; format: cell-based; conditions: Homo sapiens, 24 h of treatment
Procedure: as §2, §3

S. aureus ATCC 25923 [4] = test: Checkerboard broth dilution synergy assay; format: cell-based
Procedure: The microdilution checkerboard method was used to evaluate the synergistic effects between the thiosemicarbazides 1–9 and antibiotics, which were determined as the fractional inhibitory concentration indices (FICIs). For these experiments, amoxicillin, gentamicin, levofloxacin, linezolid, and vancomycin were selected to represent the five antimicrobial classes most commonly used in clinical practice. In this way, a total of 45 combinations of thiosemicarbazide-amoxicillin, thiosemicarbazide-gentamicin, thiosemicarbazide-levofloxacin, thiosemicarbazide-linezolid, and thiosemicarbazide-vancomycin against S. aureus ATCC 25923 were tested to identify in vitro synergy effects.
Interaction of the thiosemicarbazides 1–9 in combination with amoxicillin, gentamicin, levofloxacin, linezolid or vancomycin against S. aureus ATCC 25923 were analyzed using the checkerboard broth dilution method to determine the fractional inhibitory concentration indices (FICIs), calculated as: FIC = MIC of drug A in combination/MIC of drug A alone + MIC of drug B in combination/MIC of drug B alone. The calculated FICIs were interpreted as synergistic (FIC ≤ 0.5), additive (0.5 < FIC < 1), indifferent (1 ≤ FIC < 4.0), or antagonistic (FIC ≥ 4.0). The checkerboard assay included ciprofloxacin-carvedilol combination as positive control, whereas cefuroxime in combination with 4-(4-bromophenyl)-1-(3-fluorobezoyl)thiosemicarbazide served as negative control. The Z-factor value for the bioassay was 0.683.

S. aureus DNA gyrase = target: T1, S. aureus DNA gyrase (Staphylococcus aureus, UniProt P0A0K8+P20831); test: Gyrase supercoiling assay; format: biochemical; conditions: read-out: S. aureus Gyrase DNA Inhibition (%) ± SD
T1 construct: purchased Inspiralis, Norwich, UK
Procedure: Supercoiling assay: The assays were performed using S. aureus Gyrase Supercoiling Assay Kits (Inspiralis, Norwich, UK). Briefly, […] pBR322 plasmid DNA (0.5 µg) was incubated with 1 unit of gyrase, in the dedicated supercoiling assay buffer supplied by the manufacturer, in the presence of varying concentrations of the test compounds. Reactions were carried out at 37 °C for 1 h and then terminated by the addition of equal volume of 2 × STOP Buffer (40% sucrose, 100 mM Tris-Cl pH 7.5, 1 mM EDTA, and 0.5 mg/mL bromophenol blue) and chloroform/iso-amyl alcohol. Samples were vortexed, centrifuged, and run through a 15 cm 1% agarose gel in TAE buffer (40 mM Tris-acetate, 2 mM EDTA) for 3 h at 50 V. Gels were stained with ethidium bromide and visualized under UV light.

[5] = target: T2, S. aureus topoisomerase IV (Staphylococcus aureus, UniProt P0C1S7+P0C1U9); test: Topoisomerase IV decatenation assay; format: biochemical; conditions: in words; 50 and 100 µM tested (Figures S1–S3)
T2 construct: purchased Inspiralis, Norwich, UK
Procedure: Inhibition of decatenation activity of S. aureus topoisomerase IV: The assay was performed using S. aureus topoisomerase IV decatenation kits (Inspiralis, Norwich, UK). Interlinked kDNA substrate (0.5 µg) was incubated with 1 unit of topoisomerase IV (Inspiralis, Norwich, UK), in the dedicated decatenation assay buffer supplied by the manufacturer, in the presence of varying concentrations of the test compounds. Reactions were carried out at 37 °C for 1 h and then terminated by the addition of equal volume of 2 × STOP Buffer and chloroform/iso-amyl alcohol. Samples were vortexed, centrifuged, and run through a 15 cm 1% agarose gel in TAE buffer for 1.5 h at 80 V. Gels were stained with ethidium bromide and visualized under UV light.

[6] = Staphylococcus aureus, ATCC25923, read-out: MIC

T2 sequence (P0C1U9 whole entry): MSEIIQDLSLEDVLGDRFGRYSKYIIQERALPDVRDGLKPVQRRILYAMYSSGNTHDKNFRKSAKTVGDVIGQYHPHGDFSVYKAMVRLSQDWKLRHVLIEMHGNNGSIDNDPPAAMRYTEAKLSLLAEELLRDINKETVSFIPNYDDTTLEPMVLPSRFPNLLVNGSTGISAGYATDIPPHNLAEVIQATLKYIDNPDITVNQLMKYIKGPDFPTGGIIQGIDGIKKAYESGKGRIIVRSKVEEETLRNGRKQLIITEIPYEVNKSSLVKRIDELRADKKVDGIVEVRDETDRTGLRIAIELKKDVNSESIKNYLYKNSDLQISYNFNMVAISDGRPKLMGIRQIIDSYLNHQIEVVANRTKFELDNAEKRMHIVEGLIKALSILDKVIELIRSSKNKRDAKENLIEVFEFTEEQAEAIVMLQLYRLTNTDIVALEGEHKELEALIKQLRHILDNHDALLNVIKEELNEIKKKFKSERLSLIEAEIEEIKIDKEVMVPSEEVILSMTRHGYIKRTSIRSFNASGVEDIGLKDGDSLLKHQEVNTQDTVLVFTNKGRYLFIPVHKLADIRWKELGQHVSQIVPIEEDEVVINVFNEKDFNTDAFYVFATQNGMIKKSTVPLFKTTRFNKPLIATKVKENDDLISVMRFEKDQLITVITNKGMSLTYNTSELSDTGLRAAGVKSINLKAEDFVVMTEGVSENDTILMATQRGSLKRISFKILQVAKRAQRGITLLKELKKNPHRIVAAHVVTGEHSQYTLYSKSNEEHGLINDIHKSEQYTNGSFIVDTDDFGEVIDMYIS
T2 sequence (P0C1S7 whole entry): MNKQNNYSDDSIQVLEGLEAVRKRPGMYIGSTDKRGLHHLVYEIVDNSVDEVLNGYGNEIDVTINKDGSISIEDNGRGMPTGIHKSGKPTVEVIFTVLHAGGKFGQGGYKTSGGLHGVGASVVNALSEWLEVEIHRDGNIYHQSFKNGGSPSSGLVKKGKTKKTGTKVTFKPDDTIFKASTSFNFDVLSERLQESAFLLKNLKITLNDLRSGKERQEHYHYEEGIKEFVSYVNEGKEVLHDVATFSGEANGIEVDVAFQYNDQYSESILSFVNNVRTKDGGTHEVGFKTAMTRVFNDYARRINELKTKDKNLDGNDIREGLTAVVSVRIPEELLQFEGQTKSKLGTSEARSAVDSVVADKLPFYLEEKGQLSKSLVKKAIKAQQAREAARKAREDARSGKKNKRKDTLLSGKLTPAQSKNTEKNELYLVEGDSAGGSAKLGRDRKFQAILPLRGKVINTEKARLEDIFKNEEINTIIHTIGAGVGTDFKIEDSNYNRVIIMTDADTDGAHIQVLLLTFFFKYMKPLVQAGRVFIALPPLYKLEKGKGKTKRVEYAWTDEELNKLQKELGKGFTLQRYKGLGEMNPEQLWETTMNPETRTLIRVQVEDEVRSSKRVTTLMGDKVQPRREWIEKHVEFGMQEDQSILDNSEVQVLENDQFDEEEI
T1 sequence (P20831 whole entry): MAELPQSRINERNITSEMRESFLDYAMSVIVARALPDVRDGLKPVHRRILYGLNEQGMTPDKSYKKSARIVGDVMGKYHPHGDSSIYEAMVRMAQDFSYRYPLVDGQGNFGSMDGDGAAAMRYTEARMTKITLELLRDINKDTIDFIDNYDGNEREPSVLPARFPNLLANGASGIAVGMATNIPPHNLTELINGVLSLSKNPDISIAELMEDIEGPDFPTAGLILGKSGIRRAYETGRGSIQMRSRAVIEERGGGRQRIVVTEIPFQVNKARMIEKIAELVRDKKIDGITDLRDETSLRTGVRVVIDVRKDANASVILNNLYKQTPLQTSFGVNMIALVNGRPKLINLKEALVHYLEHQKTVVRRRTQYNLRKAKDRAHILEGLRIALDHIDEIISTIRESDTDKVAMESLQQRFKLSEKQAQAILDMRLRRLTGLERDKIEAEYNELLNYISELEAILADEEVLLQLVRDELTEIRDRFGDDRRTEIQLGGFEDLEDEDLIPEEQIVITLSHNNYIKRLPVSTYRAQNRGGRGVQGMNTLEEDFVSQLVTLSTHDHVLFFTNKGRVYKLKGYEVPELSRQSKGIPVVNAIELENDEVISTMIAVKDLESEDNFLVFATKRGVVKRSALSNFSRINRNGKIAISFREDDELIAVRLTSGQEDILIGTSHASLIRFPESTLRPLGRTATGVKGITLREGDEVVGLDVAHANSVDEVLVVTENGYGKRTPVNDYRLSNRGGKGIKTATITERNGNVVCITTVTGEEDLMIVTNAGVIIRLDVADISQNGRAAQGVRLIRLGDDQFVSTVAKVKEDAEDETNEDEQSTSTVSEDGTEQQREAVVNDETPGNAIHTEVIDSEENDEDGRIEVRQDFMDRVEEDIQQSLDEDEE
T1 sequence (P0A0K8 whole entry): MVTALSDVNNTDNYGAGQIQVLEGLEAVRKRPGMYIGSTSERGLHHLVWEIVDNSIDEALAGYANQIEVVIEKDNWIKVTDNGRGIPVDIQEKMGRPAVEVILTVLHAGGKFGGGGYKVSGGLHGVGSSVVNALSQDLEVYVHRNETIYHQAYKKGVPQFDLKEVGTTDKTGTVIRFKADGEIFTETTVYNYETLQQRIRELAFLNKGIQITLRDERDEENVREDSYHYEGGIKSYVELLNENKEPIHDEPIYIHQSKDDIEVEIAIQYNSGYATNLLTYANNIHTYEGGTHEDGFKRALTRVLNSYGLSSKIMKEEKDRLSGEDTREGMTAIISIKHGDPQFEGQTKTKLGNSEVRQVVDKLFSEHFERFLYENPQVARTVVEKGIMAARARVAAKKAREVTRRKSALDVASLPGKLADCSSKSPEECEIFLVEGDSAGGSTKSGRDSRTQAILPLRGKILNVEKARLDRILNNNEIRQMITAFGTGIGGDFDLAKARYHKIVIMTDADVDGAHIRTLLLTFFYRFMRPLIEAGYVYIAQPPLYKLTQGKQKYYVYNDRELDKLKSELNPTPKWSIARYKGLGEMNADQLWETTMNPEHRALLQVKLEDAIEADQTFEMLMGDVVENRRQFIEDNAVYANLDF

| SMILES | MIC (B. cereus ATCC 10876) [µg/mL] | MIC (B. subtilis ATCC 6633) [µg/mL] | MIC (M. luteus ATCC 10240) [µg/mL] | MIC (S. aureus ATCC 25923 [1]) [µg/mL] | MIC (S. aureus ATCC 25923 [1]; [6]) [µg/mL] | MIC (S. aureus ATCC 6538) [µg/mL] | MIC [2] [µg/mL] | MIC (MRSA-1) [µg/mL] | MIC (MSSA-1) [µg/mL] | MIC (MSSA-2) [µg/mL] | MIC (MSSA-3) [µg/mL] | MIC (MSSA-4) [µg/mL] | viability at 24 h, 25 µg/mL (MTT cytotoxicity assay) [%] | IC50 [3] [µg/mL] | interaction in combination (S. aureus ATCC 25923 [4]; combination with amoxicillin) | interaction in combination (S. aureus ATCC 25923 [4]; combination with gentamicin) | interaction in combination (S. aureus ATCC 25923 [4]; combination with levofloxacin) | interaction in combination (S. aureus ATCC 25923 [4]; combination with linezolid) | interaction in combination (S. aureus ATCC 25923 [4]; combination with vancomycin) | melting point [°C] | further results |
| --- | --- | --- | --- | --- | --- | --- | --- | --- | --- | --- | --- | --- | --- | --- | --- | --- | --- | --- | --- | --- | --- |
| O=C(NNC(=S)Nc1cccc(Cl)c1)c1ccccc1F [compound 7, 4-(3-chlorophenyl)-1-(2-fluorobenzoyl)thiosemicarbazide] | 31.2 (≈ 96.5 µM) | 15.6 (≈ 48.3 µM) | 7.82 (≈ 24.2 µM) | 62.50 (≈ 193 µM) | 62.5 (≈ 193 µM) | 31.2 (≈ 96.5 µM) | 31.2 (≈ 96.5 µM) | 500 (≈ 1540 µM) | 125 (≈ 386 µM) | > 500 | 125 (≈ 386 µM) | 125 (≈ 386 µM) | 93.2 | > 25 | additively | no interactions | synergistically | no interactions | antagonistic | 158 to 160 | inhibition at 50 µM (S. aureus DNA gyrase; 50 µM): 23.8 ± 5.02%; inhibition at 100 µM (S. aureus DNA gyrase; 100 µM): 33.1 ± 1.04% |
| O=C(NNC(=S)Nc1cccc(C(F)(F)F)c1)c1ccccc1F [compound 8, 1-(2-fluorobenzoyl)-4-(3-trifluoromethylphenyl)thiosemicarbazide] | 7.82 (≈ 21.9 µM) | 7.82 (≈ 21.9 µM) | 7.82 (≈ 21.9 µM) | – | 15.6 (≈ 43.7 µM) | 15.6 (≈ 43.7 µM) | 7.82 (≈ 21.9 µM) | > 500 | 62.5 (≈ 175 µM) | > 500 | > 500 | > 500 | 65.2 | > 25 | indifferently | indifferently | additively | additively | indifferently | 176 to 178 | inhibitory action against topoisomerase IV [5]: no inhibitory effects |
| O=C(NNC(=S)Nc1cccc(Br)c1)c1ccccc1F [compound 9, 4-(3-bromophenyl)-1-(2-fluorobenzoyl)thiosemicarbazide] | 15.6 (≈ 42.4 µM) | 15.6 (≈ 42.4 µM) | 7.82 (≈ 21.2 µM) | 62.50 (≈ 170 µM) | 62.5 (≈ 170 µM) | 62.5 (≈ 170 µM) | 31.2 (≈ 84.9 µM) | 125 (≈ 339 µM) | 62.5 (≈ 170 µM) | > 500 | > 500 | 125 (≈ 339 µM) | 63.1 | > 25 | indifferently | indifferently | additively | additively | indifferently | 166 to 168 | inhibitory action against topoisomerase IV [5]: no inhibitory effects |
